# Assay results as given in patent publication US12527752B2, “Composition based on gellan gum and phenylephrine, production method and use as an ophthalmic product” (UNITHER PHARMACEUTICALS, priority 2019, dated 2026).
# Tested on: human corneal epithelial (HCE) cell line
# Assay: Cytotoxicity neutral red test
# Assay type: cell-based
# Conditions: HCE cells, 30 minutes incubation
# Description: A human corneal epithelial (HCE) cell line was cultured in Dulbecco's essential medium (Eurobio, Les Ulis, France) supplemented with 10% fetal calf serum (Eurobio), 1% glutamine (Eurobio) and 1% penicillin and streptomycin (Eurobio). Cultures were maintained at 37° C. in 5% CO2 in a humidified incubator.
# All wells were seeded with the same number of cells (9×10^4 cells/mL solution). After 24 hours, the cells reached about 70% to 80% confluency. The cells were washed with PBS and incubated for 30 minutes with 100 μL of gels in situ. […] The cells were then washed with PBS. A neutral red test was performed immediately after incubation and after 24 hours of recovery in the culture medium. The experiments were performed in triplicate.
# The neutral red test (Fluka, Buchs, Switzerland) is a cell viability test based on the ability of viable cells to incorporate neutral red, which is a weak cationic dye that readily penetrates cell membranes by nonionic diffusion and accumulates in lysosomes. […] The integrity of the lysosomal membrane is closely related to cell viability and is assessed by neutral red fluorescence (excitation at 535 nm; emission at 600 nm). […] The dye was then released from the cells using 200 μL of lysis solution per well (1% acetic acid, 50% ethanol and 49% H2O), then the fluorescence was measured using a fluorometer for microplates (Safire; Tecan, Lyon, France).
smiles,measurement,value
"CNC[C@H](O)c1cccc(O)c1 [PHE, phenylephrine]",effect on cell viability,significant cytotoxicity
